Inhibition and IC50 data for one compound are collected here from patent publication US20120129811A1, “TRICYCLIC INHIBITORS OF PRO-MATRIX METALLOPROTEINASE ACTIVATION” (priority 2010, published 2012).

For this experiment, the target named is T1, proMMP9 activation to active MMP9 in rat synoviocytes (Rattus norvegicus, UniProt P50282).
T1 construct: endogenous in cells; host or cells: primary synoviocytes from SCW-arthritic female Lewis rats, TNFα-stimulated
Description: Activation of proMMP9 in rat synoviocyte cultures (Western blot). It counts as cell-based. The text has this: Activation of proMMP9 in Rat Synoviocyte Cultures
A primary synoviocytes line was derived from the periarticular tissue of arthritic rats. Arthritis was induced in female Lewis rats following an i.p. administration of streptococcal cell wall peptidoglycan polysaccharides (J Exp Med 1977; 146:1585-1602). Rats with established arthritis were sacrificed, and hind-limbs were severed, immersed briefly in 70% ethanol, and placed in a sterile hood. The skin was removed and the inflamed tissue surrounding the tibia-tarsal joint was harvested using a scalpel. Tissue from six rats was pooled, minced to approximately 8 mm^3 pieces, and cultured in Dulbecco's Modified Eagle's Medium (DMEM) containing 15% fetal calf serum (FCS). In the following weeks, cells migrated out of the tissue piece, proliferated, and formed a monolayer of adherent cells. The synoviocytes were lifted from culture plates with 0.05% trypsin and passaged weekly at 1:4 ratios in DMEM containing 10% FCS. Synoviocytes were used at passage 9 to investigate the ability of Compound-α to inhibit the maturation of MMP9 to active form.
Rat synoviocytes spontaneously expressed and activated MMP9 when cultured in collagen gels and stimulated with tumor necrosis factor-alpha (TNFα) (FIG. 1 and Table 3). Eight volumes of an ice-cold solution of 3.8 mg/mL rat tail collagen (Sigma Cat #C3867-1VL) were mixed with 1 volume of 1 M sodium bicarbonate and 1 volume of 10× Roswell Park Memorial Institute medium. The pH of the mixture was adjusted to pH 7 with 1 N sodium hydroxide and equal volumes of the pH-adjusted collagen solution were mixed with DMEM containing 0.8 million synoviocytes per mL. One half mL volumes were dispensed into Costar 24-well culture dishes and placed for one hr at 37° C. and 5% CO2, during which time the collagen solution formed a gel. Individual gels were dislodged into wells of 12-well Costar plates containing 1 mL/well of DMEM adjusted to contain 0.05% BSA and 100 ng/mL mouse TNFα (R&D Systems Cat #410-MT-010). […] After overnight culture at 37° C. and 5% CO2, wells were adjusted to contain an additional 0.5 mL of DMEM containing 0.05% BSA and Compound-α at 4× the final desired concentration (final culture volumes were 2 mL). The plates were cultured an additional 48 hrs, at which time 1 mL of conditioned media were harvested into fresh eppendorf tubes containing 40 μL/mL of a 50% slurry of gelatin-conjugated sepharose (GE Healthcare Cat #17-0956-01). Samples were rotated for 2 hrs at 4° C. before centrifugation 1 min×200 g. Supernatants were discarded. The gelatin-sepharose pellets were washed once with 1 mL of ice cold DMEM, resuspended in 50 μL of 2× reducing Leamli buffer and heated 5 min at 95° C. Fifteen μL of eluted proteins were resolved on 4-12% NuPAGE gels and transferred to 0.45 μm pore-sized nitrocellose blots. Next, blots were incubated in blocking buffer (5% milk in Tris-buffered saline containing 0.1% Tween-20) for 1 hr at RT and probed overnight (4° C.) with blocking buffer containing 1 μg/mL primary antibodies. Blots were next probed 1 hr at RT with 1/10,000 dilutions of goat anti-mouse IgG-HRP or goat anti-rabbit IgG-HRP (Santa Cruz) in blocking buffer and developed using SuperSignal® West Fempto Maximum Sensitivity Substrate. Chemiluminesence signal was analyzed using a ChemiDoc imaging system (BioRad Laboratories) and Quantity One® image software. Electrophoretic mobility was estimated based on the mobility of standards (Novex Sharp Pre-Stained Protein Standards P/N 57318). […]
Background: A western blot detects proteins with antibodies after separation by electrophoresis.

T1 sequence (P50282 20-708 limits assumed): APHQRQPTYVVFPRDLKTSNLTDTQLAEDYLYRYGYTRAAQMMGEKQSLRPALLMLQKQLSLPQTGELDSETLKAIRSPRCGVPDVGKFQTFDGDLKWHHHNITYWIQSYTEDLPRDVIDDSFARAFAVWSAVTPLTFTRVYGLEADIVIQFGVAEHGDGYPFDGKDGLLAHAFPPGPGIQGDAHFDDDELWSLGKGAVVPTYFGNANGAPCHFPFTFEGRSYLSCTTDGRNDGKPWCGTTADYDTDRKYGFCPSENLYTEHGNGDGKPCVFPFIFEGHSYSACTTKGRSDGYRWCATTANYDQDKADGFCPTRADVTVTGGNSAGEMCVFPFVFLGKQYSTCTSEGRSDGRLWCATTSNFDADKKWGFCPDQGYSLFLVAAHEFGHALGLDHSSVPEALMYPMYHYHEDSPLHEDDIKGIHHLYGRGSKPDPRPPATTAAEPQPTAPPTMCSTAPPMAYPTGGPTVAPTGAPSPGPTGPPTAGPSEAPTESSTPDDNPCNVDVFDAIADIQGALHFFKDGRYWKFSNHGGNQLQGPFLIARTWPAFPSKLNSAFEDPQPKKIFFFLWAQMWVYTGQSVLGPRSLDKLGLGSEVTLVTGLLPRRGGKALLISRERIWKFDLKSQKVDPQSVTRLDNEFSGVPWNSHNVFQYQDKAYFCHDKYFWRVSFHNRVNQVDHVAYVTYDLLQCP

One may read the inhibition as how much of the control response was suppressed. Read a low inhibition as a response near the control. A word on the IC50: it is the concentration needed to halve the response being measured. `Cc1nc(C)c(-c2csc(Nc3cc(S(N)(=O)=O)ccc3OC(C)C)n2)s1` [Compound α, 3-(2′,4′-Dimethyl-[4,5′]bithiazolyl-2-ylamino)-4-isopropoxy-benzenesulfonamide.HBr]: the inhibition at 0.37 µM (0.37 μM Compound-α, 80 kD active MMP9, pAb-1246) was 12%. For the same compound, testing at 1.1 µM (1.1 μM Compound-α, 80 kD active MMP9, pAb-1246) gave an inhibition of 46%. Under “3.3 μM Compound-α, 80 kD active MMP9, pAb-1246”, this compound yielded an inhibition at 3.3 µM of 86%. Further, the inhibition at 10 µM (10 μM Compound-α, 80 kD active MMP9, pAb-1246) is 97%. Besides, the IC50 (rat synoviocytes, pAb-1246 band chemiluminescence, read-out: IC50 for inhibition of production of active MMP9) was approximately 1100 nM.
